Assay results: article PMC9100920, “Crosstalk between β2- and α2-Adrenergic Receptors in the Regulation of B16F10 Melanoma Cell Proliferation” (International Journal of Molecular Sciences, 2022)
Read-outs that look alike come from different tables or passages of the source.

Biological target: T1, β2-AR (Mus musculus, UniProt P18762)
T1 construct: gene Adrb2
Assay: GloSensor cAMP concentration-response in B16F10 cells (endogenous receptor), agonist
Assay type: cell-based

T1 sequence (P18762 whole entry): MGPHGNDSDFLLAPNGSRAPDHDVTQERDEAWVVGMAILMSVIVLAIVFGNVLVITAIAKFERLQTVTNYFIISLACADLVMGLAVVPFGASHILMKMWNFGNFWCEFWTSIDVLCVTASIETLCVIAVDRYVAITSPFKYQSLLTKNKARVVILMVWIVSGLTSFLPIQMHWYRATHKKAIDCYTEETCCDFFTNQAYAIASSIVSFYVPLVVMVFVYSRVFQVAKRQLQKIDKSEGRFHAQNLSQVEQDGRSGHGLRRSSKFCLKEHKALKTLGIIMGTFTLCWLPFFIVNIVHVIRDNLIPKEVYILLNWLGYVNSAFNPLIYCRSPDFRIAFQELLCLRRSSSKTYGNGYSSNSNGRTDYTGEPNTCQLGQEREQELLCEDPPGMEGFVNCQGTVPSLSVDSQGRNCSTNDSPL

EC50 (read-out: EC50) [nM] | Compound | EC50 [nM]
– | CNC[C@H](O)c1ccc(O)c(O)c1 [EPI, epinephrine] | 45
284 | NC[C@H](O)c1ccc(O)c(O)c1 [NE, norepinephrine] | –
